Measured values taken from patent US20190022039A1, “COMPOUND HAVING ENHANCING ACTIVITY FOR GLUCAGON-LIKE PEPTIDE-1 RECEPTOR ACTIONS” (AJINOMOTO CO., INC., priority 2016, published 2019).

Target: T1, human GLP-1R (Homo sapiens, UniProt P43220)
T1 construct: expressed in transfected cells; host or cells: PEAK RAPID-derived Gα15-trans48 LD stably expressing cells (PRG48), transiently transfected with Lipofectamine 2000
Assay: GLP-1 receptor in vitro calcium assay (intracellular free calcium concentration change induced via GLP-1 receptor)
Assay type: cell-based
Conditions: for EC50: PRG48 cells transfected with human GLP-1R, compound added with 250 pM GLP-1, Ca2+ response ΔF/F, read-out: Ca EC50 value; for GLP-1 receptor action enhancing activity (vs BETP): intensity compared to BETP, activity of BETP as 1
Method: The supernatant was removed by centrifugation (1,200 rpm, 3 min), and the cells were suspended at 4×10^6 cells/mL in 5% FBS DMEM/Ham's F-12. 1.0 mL thereof was seeded in a 15 cm dish and cultured (37° C., 5% CO2) overnight. The next day, the medium of the cultured PRG48 cells was replaced with 5% FBS DMEM/Ham's F-12 medium (30 mL), human GLP-1R gene mixture solution (GLP-1R/pc.DNA3.1(+) 60 μg) prepared using 6.0 mL of Opti-MEM (invitrogen) and 120 μL of Lipofectamin 2000 (invitrogen) was slowly added to the cells, and cultured (37° C., 5% CO2) for 6 hr to introduce the gene. […] The cells were counted, suspended at 0.5×10^6 cells/mL in 5% FBS DMEM/Ham's F-12 medium, and seeded in each well of D-Lysine coat 96 well plate (BD Bioscience) at 7.0×10^4 cells. After static adhesion at room temperature for 1 hr, the cells were cultured overnight (37° C., 5% CO2). The medium in the Cultured 96 well was entirely discarded, 150 μL of intracellular calcium measurement staining solution Calcium assay kit Express (Molecular Device) diluted 80-fold with Assay buffer (20 mM HEPES, 146 mM NaCl, 1 mM MgSO4, 1.39 mM glucose, 1 mM CaCl2, 2.5 mM Probenecid, 0.05% Casein Enzymatic Hydrolysate) was added, and the mixture was stood at 37° C. for 30 min, and then at room temperature for 45 min to perform staining. After staining, 250 pM GLP-1 and the compound were added and Ca^2+ response was observed by using FDSSμCELL (Hamamatsu Photonics K.K.). Each evaluation compound was dissolved in DMSO, further diluted with Assay buffer and used.
For evaluation, the fluorescence values (Ex480:Em540) before and after addition were measured, and changes in the intracellular free calcium concentration produced via GLP-1R receptor by the addition were quantitatively examined. For the measurement and analysis of the fluorescence values, a soft (FDSS7000EX) attached to the FDSSμCELL was used, and ΔF/F value ((maximum fluorescence value after stimulation−minimum fluorescence value after stimulation)/fluorescence value before stimulation) was calculated. Using the obtained ΔF/F values, EC50 value was calculated by Prism5.

T1 sequence (P43220 24-463): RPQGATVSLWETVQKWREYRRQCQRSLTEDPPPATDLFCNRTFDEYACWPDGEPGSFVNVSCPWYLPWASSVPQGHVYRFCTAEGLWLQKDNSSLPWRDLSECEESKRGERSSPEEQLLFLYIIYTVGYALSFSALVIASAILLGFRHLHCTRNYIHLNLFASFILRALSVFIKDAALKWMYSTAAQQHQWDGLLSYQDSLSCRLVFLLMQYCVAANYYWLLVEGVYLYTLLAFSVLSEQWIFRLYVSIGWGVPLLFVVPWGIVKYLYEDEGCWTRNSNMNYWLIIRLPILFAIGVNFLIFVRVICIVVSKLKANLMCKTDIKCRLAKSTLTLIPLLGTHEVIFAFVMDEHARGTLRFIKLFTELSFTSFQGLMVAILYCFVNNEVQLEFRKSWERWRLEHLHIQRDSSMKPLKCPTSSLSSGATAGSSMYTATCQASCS

| Compound | EC50 [nM] | GLP-1 receptor action enhancing activity (vs BETP) |
| --- | --- | --- |
| Cc1ccc(S(=O)(=O)Nc2ccc(NC(=O)N[C@H](Cc3ccccc3)C(=O)N[C@@H](C)c3ccccc3)cc2)cc1 [Compound 31] | 480 | 52 |
| Cc1ccc(S(=O)(=O)Nc2ccc(NC(=S)N[C@H](Cc3ccccc3)C(=O)OC(C)(C)C)cc2)cc1 [Compound 68] | 1200 | 22 |
| CC(C)(C)SCCCCCNC(=O)[C@@H](CC1CCCCC1)NC(=O)Nc1ccc(NS(=O)(=O)c2ccc(C(C)(C)C)cc2)cc1 [Compound 99] | 150 | 169 |
| Cc1ccc(S(=O)(=O)Nc2ccc(NC(=O)N[C@H](Cc3ccccc3)C(=O)NCCC3CCCCC3)cc2)cc1 [Compound 22] | 220 | 116 |
| CCCCCCCNC(=O)[C@@H](Cc1ccccc1)NC(=O)Nc1ccc(NS(=O)(=O)c2ccc(C)cc2)cc1 [Compound 6] | 130 | 187 |
| Cc1ccc(S(=O)(=O)Nc2ccc(NC(=O)N[C@H](Cc3ccccc3)C(=O)NC(C)(C)C34CC5CC(CC(C5)C3)C4)cc2)cc1 [Compound 61] | 15 | 1710 |
| CCC(CC)CNC(=O)[C@@H](Cc1ccccc1)NC(=O)Nc1ccc(NS(=O)(=O)c2ccc(C)cc2)cc1 [Compound 10] | 380 | 67 |
| Cc1ccc(S(=O)(=O)Nc2ccc(NC(=O)N[C@H](CC(C)C)C(=O)OC(C)(C)C)cc2)cc1 [Compound 64] | 1600 | 15 |
| COCCCNC(=O)[C@@H](CC1CCCCC1)NC(=O)Nc1ccc(NS(=O)(=O)c2ccc(C(C)(C)C)cc2)cc1 [Compound 107] | 720 | 35 |
| CC(C)(C)c1ccc(S(=O)(=O)Nc2ccc(NC(=O)N[C@H](CC3CCCCC3)c3nc(C(C)(C)C)no3)cc2)cc1 [Compound 82] | 16 | 1606 |
| CCCCCCN(C)C(=O)[C@@H](Cc1ccccc1)NC(=O)Nc1ccc(NS(=O)(=O)c2ccc(C)cc2)cc1 [Compound 53] | 280 | 91 |
| Cc1cccc(S(=O)(=O)Nc2ccc(NC(=O)N[C@@H](Cc3ccccc3)C(=O)OC(C)(C)C)cc2)c1 [Compound 77] | 1600 | 16 |
| Cc1ccc(S(=O)(=O)Nc2ccc(NC(=O)N[C@H](Cc3ccccc3)C(=O)NCC3CCCC3)cc2)cc1 [Compound 27] | 1100 | 23 |
| CCC(CC)CNC(=O)[C@@H](CC(C)C)NC(=O)Nc1ccc(NS(=O)(=O)c2ccc(C)cc2)cc1 [Compound 30] | 1200 | 21 |
| Cc1ccc(S(=O)(=O)Nc2ccc(NC(=O)N[C@H](Cc3ccccc3)C(=O)NCc3cccs3)cc2)cc1 [Compound 12] | 540 | 47 |
| CCCCCCNc1ccc(S(=O)(=O)Nc2ccc(NC(=O)N[C@H](CC3CCCCC3)C(=O)NC(C)CCCC(C)C)cc2)cn1 (stereo partly drawn) [Compound 105] | 440 | 56 |
| CC(C)CCCC(C)NC(=O)[C@@H](Cc1cccnc1)NC(=O)Nc1ccc(NS(=O)(=O)c2ccc(C(C)(C)C)cc2)cc1 (stereo partly drawn) [Compound 102] | 130 | 193 |
| Cc1ccc(S(=O)(=O)Nc2ccc(NC(=O)N[C@H](Cc3c[nH]c4ccccc34)C(=O)NC3CCCCCC3)cc2)cc1 [Compound 43] | 160 | 160 |
| COC(C)(C)CNC(=O)[C@@H](Cc1ccccc1)NC(=O)Nc1ccc(NS(=O)(=O)c2ccc(C)cc2)cc1 [Compound 9] | 650 | 39 |
| CCCCCCCCNC(=O)[C@H](Cc1ccc(Cl)cc1)NC(=O)Nc1ccc(NS(=O)(=O)c2ccc(C(C)(C)C)cc2)cc1 [Compound 59] | 5.7 | – |
| CCCCCCNC(=O)[C@@H](Cc1ccc(F)cc1)NC(=O)Nc1ccc(NS(=O)(=O)c2ccc(C)cc2)cc1 [Compound 17] | 520 | 48 |
| Cc1ccc(S(=O)(=O)Nc2ccc(NC(=O)N[C@H](CC(C)C)C(=O)NCCC3CCCCC3)cc2)cc1 [Compound 48] | 280 | 92 |
| Cc1ccc(S(=O)(=O)Nc2ccc(NC(=O)N[C@H](CC(C)C)C(=O)NCC3CCCCC3)cc2)cc1 [Compound 29] | 940 | 27 |
| CC(C)CCCC(C)NC(=O)[C@H](CC1CCCCC1)NC(=O)Nc1ccc(NS(=O)(=O)c2ccc(C(C)(C)C)cc2)cc1 (stereo partly drawn) [Compound 56] | 3.8 | 6569 |
| Cc1ccc(S(=O)(=O)Nc2ccc(NC(=O)N[C@H](Cc3ccccc3)C(=O)NCC(F)(F)F)cc2)cc1 [Compound 15] | 42 | 599 |
| CCCCC(CC)CNC(=O)[C@@H](Cc1ccc(Cl)cc1)NC(=O)Nc1ccc(NS(=O)(=O)c2ccc(C)cc2)cc1 (stereo partly drawn) [Compound 39] | 23 | – |
| CCCCCCNC(=O)[C@@H](CCSC)NC(=O)Nc1ccc(NS(=O)(=O)c2ccc(C)cc2)cc1 [Compound 20] | 1500 | 17 |

Continued by falling EC50, values first:

| EC50 [nM] | GLP-1 receptor action enhancing activity (vs BETP) | Compound |
| --- | --- | --- |
| 1900 | 13 | Cc1ccc(S(=O)(=O)Nc2ccc(NC(=O)N[C@@H](Cc3ccccc3)C(=O)OC(C)(C)C)cc2)cc1 [Compound 63] |
| 1800 | 14 | Cc1ccc(S(=O)(=O)Nc2ccc(NC(=O)N[C@H](CC(C)C)C(=O)NCCc3cccs3)cc2)cc1 [Compound 28] |
| 1700 | 15 | Cc1ccccc1S(=O)(=O)Nc1ccc(NC(=O)N[C@@H](Cc2ccccc2)C(=O)OC(C)(C)C)cc1 [Compound 78] |
| 1100 | 23 | Cc1ccc(S(=O)(=O)Nc2ccc(NC(=O)N[C@H](Cc3ccccc3)C(=O)OC(C)(C)C)cc2F)cc1 [Compound 87, tert-butyl (2R)-2-{[3-fluoro-4-(p-tolylsulfonylamino)phenyl]carbamoylamino}-3-phenyl-propanoate] |
| 500 | 50 | Cc1ccc(S(=O)(=O)Nc2ccc(NC(=O)N[C@H](Cc3ccccc3)C(=O)NCC3CCCCC3)cc2)cc1 [Compound 8] |
| 430 | 58 | Cc1ccc(S(=O)(=O)Nc2ccc(N(C)C(=O)N[C@H](Cc3ccccc3)C(=O)OC(C)(C)C)cc2)cc1 [Compound 86] |
| 390 | 64 | CC(C)CCCC(C)NC(=O)[C@@H](Cc1ccncc1)NC(=O)Nc1ccc(NS(=O)(=O)c2ccc(C(C)(C)C)cc2)cc1 (stereo partly drawn) [Compound 106] |
| 180 | 140 | CC(C)CCCC(C)NC(=O)[C@@H](Cc1c[nH]c2ccccc12)NC(=O)Nc1cccc(NS(=O)(=O)c2ccc(C(C)(C)C)cc2)c1 (stereo partly drawn) [Compound 94] |
| 170 | 144 | Cc1ccc(S(=O)(=O)Nc2ccc(NC(=O)N[C@H](Cc3ccccc3)C(=O)NC3CCCCCCC3)cc2)cc1 [Compound 52] |
| 160 | – | CCCCCCNC(=O)[C@@H](Cc1ccc(Cl)cc1)NC(=O)Nc1ccc(NS(=O)(=O)c2ccc(C)cc2)cc1 [Compound 19] |
| 120 | 208 | Cc1ccc(S(=O)(=O)Nc2ccc(NC(=O)N[C@H](Cc3c[nH]c4ccccc34)C(=O)NCCC3CCCCC3)cc2)cc1 [Compound 47] |
| 24 | 1028 | CC(C)CCCC(C)NC(=O)[C@@H](CC1CCCCC1)NC(=O)Nc1cccc(NS(=O)(=O)c2ccc(C(C)(C)C)cc2)c1 (stereo partly drawn) [Compound 92] |
| 18 | 1425 | CCCCC(CC)CNC(=O)[C@@H](Cc1ccccc1)NC(=O)Nc1ccc(NS(=O)(=O)c2ccc(C(C)(C)C)cc2)cc1 (stereo partly drawn) [Compound 36] |
| 11 | 2311 | CCCCCCNc1ccc(S(=O)(=O)Nc2cccc(NC(=O)N[C@H](CC3CCCCC3)C(=O)NC(C)CCCC(C)C)c2)cn1 (stereo partly drawn) [Compound 109] |
| 10 | 2534 | CCCCC(CC)CNC(=O)[C@H](Cc1c[nH]c2ccccc12)NC(=O)Nc1ccc(NS(=O)(=O)c2ccc(C(C)(C)C)cc2)cc1 (stereo partly drawn) [Compound 49] |
